The text below walks through data of article PMC4229968, “The Inhibition of the Components from Shengmai Injection towards UDP-Glucuronosyltransferase” (Evidence-based Complementary and Alternative Medicine : eCAM, 2014).

Common to all, as to format: in vitro ADME
One data set concerns the target T1, UGT1A1 (Homo sapiens, UniProt P22309).
T1 construct: purchased BD Gentest Corp. (Woburn, MA, USA); host or cells: baculovirus-infected insect cells
T1 sequence (P22309 26-533): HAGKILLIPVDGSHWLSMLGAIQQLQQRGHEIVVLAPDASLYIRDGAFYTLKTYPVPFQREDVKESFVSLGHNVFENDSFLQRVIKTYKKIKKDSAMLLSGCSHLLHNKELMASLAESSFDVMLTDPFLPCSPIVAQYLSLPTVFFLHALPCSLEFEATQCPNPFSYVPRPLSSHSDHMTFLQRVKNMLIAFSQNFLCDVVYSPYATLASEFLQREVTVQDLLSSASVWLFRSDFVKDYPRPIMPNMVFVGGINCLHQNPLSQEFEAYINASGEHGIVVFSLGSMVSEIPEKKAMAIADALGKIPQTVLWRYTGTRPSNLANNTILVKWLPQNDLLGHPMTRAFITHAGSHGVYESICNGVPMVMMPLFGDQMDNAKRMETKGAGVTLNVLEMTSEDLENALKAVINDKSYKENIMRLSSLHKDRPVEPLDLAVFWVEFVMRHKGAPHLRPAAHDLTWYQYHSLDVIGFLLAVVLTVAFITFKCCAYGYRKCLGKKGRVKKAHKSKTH
In words: Recombinant UGT1A1-catalyzed 4-MU glucuronidation inhibition. The conditions noted are these: pH 7.4, probe 4-methylumbelliferone (4-MU), UGT1A1, 100 μM of compound, 4-MU substrate, read-out: residual activity. The source says: (§1) 4-Methylumbelliferone (4-MU), 4-methylumbelliferone-β-D-glucuronide (4-MUG), Tris-HCl, 7-hydroxycoumarin, and uridine-5′-diphosphoglucuronic acid (UDPGA) (trisodium salt) were purchased from Sigma-Aldrich (St. Louis, MO). Recombinant human UGT isoforms (UGT1A1, UGT1A3, UGT1A4, UGT1A6, UGT1A7, UGT1A8, UGT1A9, UGT1A10, UGT2B4, UGT2B7, and UGT2B15) expressed in baculovirus-infected insect cells were obtained from BD Gentest Corp. (Woburn, MA, USA). Ophiopogonin D (OD), ophiopogonin D′ (OD′), methylophiopogonanone A (MA), methylophiopogonanone B (MB), and ruscorectal (RU) were purchased from Sichuan Weikeqi Biotechnology Company (Chengdu, Sichuan, China). The purity of these compounds was above 95%. All other reagents were of HPLC grade or of the highest grade commercially available.
(§2) 4-MU, the nonspecific probe substrate for all the UGT isoforms except UGT1A4, was used in the present study to initially screen the inhibition potential of maidong's components towards UGT isoforms as previously reported. In brief, the incubation system (total volume = 200 μL) consisted of recombinant UGTs, 5 mM UDPGA, 5 mM MgCl2, 50 mM Tris-HCl (pH = 7.4), and 4-MU in the absence or presence of different concentrations of maidong's components. The compounds were dissolved in DMSO, and the final concentration of DMSO was below 0.5% (v/v). The used incubation time and protein concentration were previously determined to ensure the reaction rate within the linear range. The 4-MU concentration was equal to known K m or S 50 values for each UGT isoform. After 5 min preincubation at 37°C, the incubation reaction was initiated via adding UDPGA to the mixture system. The reactions were quenched by adding 100 μL acetonitrile with 7-hydroxycoumarin (100 μM) as internal standard. Centrifuged at 20000 ×g for 10 min, an aliquot of supernatant was transferred to an autoinjector vial for HPLC analysis. The HPLC system (Shimadzu, Kyoto, Japan) contained a SCL-10A system controller, two LC-10AT pumps, a SIL-10A autoinjector, and a SPD-10AVP UV detector. Chromatographic separation was carried out using a C18 column (4.6 × 200 mm, 5 μm, Kromasil) at a flow rate of 1 mL/min and UV detector at 316 nm. The mobile phase consisted of acetonitrile (A) and H2O containing 0.5% (v/v) formic acid (B). The following gradient condition was used: 0–15 min, 95–40% B; 15–20 min, 10% B; 20–30 min, 95% B.

A further data set deals with T2, UGT1A8 (Homo sapiens, UniProt Q9HAW9).
T2 construct: purchased BD Gentest Corp. (Woburn, MA, USA); host or cells: baculovirus-infected insect cells
T2 sequence (Q9HAW9 26-530): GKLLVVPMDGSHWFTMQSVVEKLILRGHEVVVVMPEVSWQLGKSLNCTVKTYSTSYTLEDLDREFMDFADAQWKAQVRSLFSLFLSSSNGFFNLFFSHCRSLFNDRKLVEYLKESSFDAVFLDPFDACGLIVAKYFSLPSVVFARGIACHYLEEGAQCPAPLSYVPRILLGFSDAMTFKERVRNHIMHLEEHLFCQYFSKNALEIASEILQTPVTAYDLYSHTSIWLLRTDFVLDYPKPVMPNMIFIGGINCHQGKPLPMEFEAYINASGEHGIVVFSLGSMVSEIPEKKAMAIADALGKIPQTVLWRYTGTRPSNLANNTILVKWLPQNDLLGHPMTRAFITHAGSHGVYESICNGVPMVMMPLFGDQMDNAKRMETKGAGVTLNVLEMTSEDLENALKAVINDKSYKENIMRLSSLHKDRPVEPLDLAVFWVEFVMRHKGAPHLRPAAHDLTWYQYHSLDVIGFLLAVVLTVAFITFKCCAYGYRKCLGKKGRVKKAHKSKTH
Description: Recombinant UGT1A8-catalyzed 4-MU glucuronidation inhibition. The following applies: for activity at 100 µM: UGT1A8, 100 μM of compound, 4-MU substrate, read-out: residual activity.
Description: as §1, §2
To determine the inhibition kinetic type and parameters (K i), the reaction velocity (V) was determined at multiple concentrations of maidong's components and 4-MU (or TFP). Dixon plot and Lineweaver-Burk plot were used to fit the data. The inhibition kinetic type was evaluated through determining the intersection point in the Dixon and Lineweaver-Burk plots.
K m value is the substrate concentration in which the velocity reached half of the maximum velocity (V max) of the reaction. K i value is the inhibition constant.

For the next data set, the target named is T3, UGT2B4 (Homo sapiens, UniProt P06133).
T3 construct: purchased BD Gentest Corp. (Woburn, MA, USA); host or cells: baculovirus-infected insect cells
T3 sequence (P06133 24-528): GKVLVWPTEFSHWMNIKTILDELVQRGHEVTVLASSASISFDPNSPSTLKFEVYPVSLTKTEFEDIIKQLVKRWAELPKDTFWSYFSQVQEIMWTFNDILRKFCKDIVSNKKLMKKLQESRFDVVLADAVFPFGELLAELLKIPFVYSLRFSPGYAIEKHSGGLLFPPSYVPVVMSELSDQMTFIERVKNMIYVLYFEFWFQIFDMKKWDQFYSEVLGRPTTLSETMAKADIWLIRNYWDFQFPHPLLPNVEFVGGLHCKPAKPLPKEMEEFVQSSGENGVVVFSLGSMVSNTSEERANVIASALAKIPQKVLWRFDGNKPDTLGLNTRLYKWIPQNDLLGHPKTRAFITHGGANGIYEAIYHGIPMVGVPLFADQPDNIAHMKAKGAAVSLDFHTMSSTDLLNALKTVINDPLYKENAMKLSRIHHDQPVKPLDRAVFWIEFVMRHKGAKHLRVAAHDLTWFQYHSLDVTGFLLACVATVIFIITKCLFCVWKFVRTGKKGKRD
Description: Recombinant UGT2B4-catalyzed 4-MU glucuronidation inhibition. The following applies: pH 7.4, probe 4-methylumbelliferone (4-MU), UGT2B4, 100 μM of compound, 4-MU substrate, read-out: residual activity.
Description: as §1, §2

Setting [1] is: human, pH 7.4, probe 4-methylumbelliferone (4-MU).

For the compound `Cc1c(O)c(C)c2c(c1O)C(=O)[C@H](Cc1ccc3c(c1)OCO3)CO2` [MA, methylophiopogonanone A], the activity at 100 µM at UGT1A1 was 31.3 ± 1.3%; at UGT1A8 (setting [1]), 20.5 ± 2.1%; on UGT2B4, 71.1 ± 1.5%.

In the case of `COc1ccc(C[C@@H]2COc3c(C)c(O)c(C)c(O)c3C2=O)cc1` [MB, methylophiopogonanone B], the activity at 100 µM at UGT1A1 turned out to be 27.9 ± 11.1%; on UGT1A8 (setting [1]), 85 ± 4.5%; on UGT2B4, 73.2 ± 1.2%.

As usually defined, the Ki is the dissociation constant of the complex between target and ligand, obtained from inhibition or displacement. The term inhibition denotes the relative decrease from the control value, in per cent. As to `C[C@@H]1CC[C@@]2(OC1)O[C@H]1C[C@H]3[C@@H]4CC=C5C[C@@H](O)C[C@@H](O[C@@H]6O[C@H](C)[C@H](O)[C@H](O[C@@H]7OC[C@@H](O)[C@H](O)[C@H]7O)[C@H]6O[C@@H]6O[C@@H](C)[C@H](O)[C@@H](O)[C@H]6O)[C@]5(C)[C@H]4CC[C@]3(C)[C@H]1[C@@H]2C` [OD, ophiopogonin D], the activity at 100 µM on UGT1A1 is 77.1 ± 3.8%; at UGT1A8 (setting [1]) it was 17.3 ± 0.9%; on UGT2B4, 102 ± 2.6%. For the same compound, on UGT1A8, the Ki stood at 40.1 µM. In addition, the inhibition type result at UGT1A8 (UGT1A8, Dixon and Lineweaver-Burk plots) was “competitively inhibited”. In addition, the inhibition at 100 µM at UGT1A8 (human, pH 7.4, probe 4-methylumbelliferone (4-MU), UGT1A8, at 100 μM, read-out: inhibition percent) was 82.7%.

Regarding `C[C@@H]1CC[C@@]2(OC1)O[C@H]1C[C@H]3[C@@H]4CC=C5C[C@@H](O[C@@H]6O[C@H](CO)[C@@H](O)[C@H](O[C@@H]7OC[C@@H](O)[C@H](O)[C@H]7O)[C@H]6O[C@@H]6O[C@@H](C)[C@H](O)[C@@H](O)[C@H]6O)CC[C@]5(C)[C@H]4CC[C@]3(C)[C@H]1[C@@H]2C` [OD′, ophiopogonin D′], the activity at 100 µM at UGT1A1 was determined as 81 ± 12.6%; on UGT1A8 (setting [1]) it was 18.9 ± 6.6%; on UGT2B4 it was 118 ± 21.8%.

Regarding `CC1CCC2(OC1)OC1CC3C4CC=C5CC(O)CC(O)C5(C)C4CCC3(C)C1C2C` (stereo not drawn) [RU, ruscorectal], the values for the activity at 100 µM at UGT1A1, at UGT1A8 (setting [1]) and on UGT2B4 were 41.5 ± 36.9%, 72 ± 3% and 88.4 ± 1.6%, respectively.
